The target of data set [1] is porcine pancreatic trypsin (Sus scrofa, UniProt P00761). Description: Proteolytic resistance to trypsin (% remaining intact peptide, RP-HPLC AUC). The format is in vitro ADME. The following applies: t = 0; 37° C., pH 7.8.
Description: Trypsin: Lyophilized porcine pancreatic trypsin (Sigma: T1426) was reconstituted to afford a solution of 100 μg/mL (˜300 units/mL) in assay buffer (50 mM Tris, 10 mM CaCl2), 150 mM NaCl, 1 mM HCl, adjusted to pH 7.8) to give the enzyme stock solution. […] Ratio enzyme (units):peptide (μmoles) ˜1:11. […] Ratio enzyme (units):peptide (μ moles) ˜1.2:1.
Lyophilized porcine pancreatic trypsin (Sigma: T7409) was reconstituted to 200 μg/mL (˜300 units/mL) in assay buffer (50 mM Tris, 10 mM CaCl2), 150 mM NaCl, 1 mM HCl, adjusted to pH 7.8) to give the enzyme stock solution. […] 15 μL aliquots (˜15 μg initial peptide) of the peptide-enzyme mixture were periodically withdrawn (t=0, 30 mins, 1 hr, 2 hr, 4 hr, 8 hr, 24 hr) and quenched immediately by addition to an equal volume (15 μL) of 5% TFA (v/v) in 1:1 water/acetonitrile to arrest proteolytic activity. 20 μL aliquots (˜10 μg initial peptide) were analysed by LC/MS and/or analytical RP-HPLC as follows: LC/MS method: Agilent Polaris C8-A column (4.6×100 mm, 3 micron) eluted with a linear binary gradient of 10-90% MeCN (0.1% TFA v/v) in water (0.1% TFA v/v) over 30 mins at 1.5 mL min^−1 at ambient temperature with detection by both UV absorption at 210 nm and ionization using a Waters 3100 mass detector (ESI^+ mode). Peptide fragments deriving from enzymatic hydrolysis were identified by molecular weight, allowing location of the site of cleavage. Analytical RP-HPLC method: Agilent Polaris C8-A column (4.6×100 mm, 3 micron) eluted with a linear binary gradient of 10-90% MeCN (0.1% TFA v/v) in water (0.1% TFA v/v) over either 10 or 15 mins at 1.5 mL min^−1 at 40° C. with detection by UV absorption at 210 nm. Manual integration (AUC) allowed estimation of remaining intact peptide over the time course of the experiment.
Lyophilized porcine pancreatic trypsin (Sigma: T7409) was reconstituted to 200 μg/mL (˜300 units/mL) in assay buffer (50 mM Tris, 10 mM CaCl2), 150 mM NaCl, 1 mM HCl, adjusted to pH 7.8) to give the enzyme stock solution. […] 25 μL aliquots (˜17 μg initial peptide) of the peptide-enzyme mixture were periodically withdrawn (t=0, 30 mins, 1 hr, 2 hr, 4 hr, 8 hr, 24 hr) and quenched immediately by addition to an equal volume (25 μL) of 5% TFA (v/v) in 1:1 water/acetonitrile to arrest proteolytic activity. 25 μL aliquots (˜8 μg initial peptide) were analysed by LC/MS and/or analytical RP-HPLC as follows: LC/MS method: Agilent Polaris C8-A column (4.6×100 mm, 3 micron) eluted with a linear binary gradient of 10-90% MeCN (0.1% TFA v/v) in water (0.1% TFA v/v) over 30 mins at 1.5 mL min^−1 at ambient temperature with detection by both UV absorption at 210 nm and ionization using a Waters 3100 mass detector (ESI^+ mode). Peptide fragments deriving from enzymatic hydrolysis were identified by molecular weight, allowing location of the site of cleavage. Analytical RP-HPLC method: Agilent Polaris C8-A column (4.6×100 mm, 3 micron) eluted with a linear binary gradient of 10-90% MeCN (0.1% TFA v/v) in water (0.1% TFA v/v) over either 10 or 15 mins at 1.5 mL min^−1 at 40° C. with detection by UV absorption at 210 nm. Manual integration (AUC) allowed estimation of remaining intact peptide over the time course of the experiment.
Data set [2] has as its target T1, porcine pancreatic pepsin (Sus scrofa, UniProt P00791).
T1 construct: purchased Sigma P7012
Description: Proteolytic resistance to pepsin (% remaining intact peptide, RP-HPLC AUC). It is filed as in vitro ADME. As to conditions: t = 0; 37° C., pH 2.0. On the procedure:
Pepsin: Lyophilized porcine pancreatic pepsin (Sigma: P7012) was reconstituted to afford a solution of 200 μg/mL (˜500 units/mL) in assay buffer (0.1 M HCl, pH 2.0) to give the enzyme stock solution. […] Ratio enzyme (units):peptide (moles) ˜1:6. […] Ratio enzyme (units):peptide (μmoles) ˜2:1.
Lyophilized porcine pancreatic pepsin (Sigma: P7012) was reconstituted to […] (˜500 units/mL) in assay buffer ([…], pH 2.0) to give the enzyme stock solution.

The next data set concerns the target T2, recombinant Neprilysin (Homo sapiens, UniProt P08473).
T2 construct: purchased R&D Systems 1182-ZNC-010
Description: Proteolytic resistance to neprilysin (% remaining peptide, RP-HPLC AUC). It is filed as in vitro ADME. The following applies: t = 0 (baseline); 37° C., pH 8.3; enzyme:peptide ~1:33 for non-lipidated, ~1:2.5 for lipidated peptides.

The nature of data set [3]: Proteolytic resistance to α-chymotrypsin (% remaining intact peptide, RP-HPLC AUC). The following applies: recombinant α-chymotrypsin in assay buffer, pH 7.8.
For data set [4], the system named is recombinant α-chymotrypsin. The description is as above. As to conditions: t = 0; 37° C., pH 7.8.
For data set [5], the system named is FASSIF/P (Fasted-State Simulated Intestinal Fluid+USP Pancreatin®). Description: Proteolytic resistance to fasted-state simulated intestinal fluid (FASSIF/Pancreatin). It is filed as in vitro ADME. The following applies: t = 0; 37° C. The protocol:
(§1) A fresh suspension of FASSIF/P (Fasted-State Simulated Intestinal Fluid+USP Pancreatin®) was prepared according to that described by Galia, Nicolaides, Hörter, Lobenberg, Reppas and Dressman: Pharm. Res. 15 (1998) 698-705. The resulting preparation is proteolytically equivalent to ˜375 units/mL (375 kU/L) and was used immediately without storage. Peptides for evaluation (1.0 mg, ˜250 nmoles) were initially dissolved in pre-warmed FASSIF without Pancreatin® (200 μL) to which was added pre-warmed fresh FASSIF/Pancreatin® (100 μL) to initiate potential digestion. Following momentary vortexing of the Eppendorf reaction tube the mixture was incubated at 37° C. in a thermostatic waterbath for the duration of the experiment. 25 μL aliquots of the co-incubated peptide-enzyme mixture were periodically withdrawn (t=0, 5 m, 10 m, 15 m, 30 m, 1 h, 2 h) and quenched immediately by addition to a solution of 10% TFA in 1:1 water/acetonitrile (75 μL) to arrest proteolytic activity.

Experiment in data set [6]: as above
The format is in vitro ADME. The following applies: 37° C., read-out: Percentage remaining intact peptide (AUC by RP-HPLC) upon incubation with fasted-state simulated intestinal fluid (FASSIF/P). On the procedure:
as §1

Numbered stars: 1 amine (or outer) side, 2 acyl side, 3 side chain; on linkers, the order of the positions; unused ones are H or OH. Square brackets hold non-standard residues; d marks the D form. Side chains are listed from the residue outwards. Peptide text beside a SMILES is read from it. * marks the point of attachment. C18 diacid = O=C(O)CCCCCCCCCCCCCCCCC(=O)*; γGlu = O=C(O)[C@H](CCC(=O)[*:2])N[*:1]; Palmitoyl = CCCCCCCCCCCCCCCC(=O)*; αMeF = C[C@](N)(Cc1ccccc1)C(=O)O; αMeK = C[C@](N)(CCCCN)C(=O)O; Lauroyl = CCCCCCCCCCCC(=O)*; αMeS = C[C@](N)(CO)C(=O)O; AEEA = NCCOCCOCC(=O)O; Aib = CC(C)(N)C(=O)O

T2 sequence (P08473 whole entry): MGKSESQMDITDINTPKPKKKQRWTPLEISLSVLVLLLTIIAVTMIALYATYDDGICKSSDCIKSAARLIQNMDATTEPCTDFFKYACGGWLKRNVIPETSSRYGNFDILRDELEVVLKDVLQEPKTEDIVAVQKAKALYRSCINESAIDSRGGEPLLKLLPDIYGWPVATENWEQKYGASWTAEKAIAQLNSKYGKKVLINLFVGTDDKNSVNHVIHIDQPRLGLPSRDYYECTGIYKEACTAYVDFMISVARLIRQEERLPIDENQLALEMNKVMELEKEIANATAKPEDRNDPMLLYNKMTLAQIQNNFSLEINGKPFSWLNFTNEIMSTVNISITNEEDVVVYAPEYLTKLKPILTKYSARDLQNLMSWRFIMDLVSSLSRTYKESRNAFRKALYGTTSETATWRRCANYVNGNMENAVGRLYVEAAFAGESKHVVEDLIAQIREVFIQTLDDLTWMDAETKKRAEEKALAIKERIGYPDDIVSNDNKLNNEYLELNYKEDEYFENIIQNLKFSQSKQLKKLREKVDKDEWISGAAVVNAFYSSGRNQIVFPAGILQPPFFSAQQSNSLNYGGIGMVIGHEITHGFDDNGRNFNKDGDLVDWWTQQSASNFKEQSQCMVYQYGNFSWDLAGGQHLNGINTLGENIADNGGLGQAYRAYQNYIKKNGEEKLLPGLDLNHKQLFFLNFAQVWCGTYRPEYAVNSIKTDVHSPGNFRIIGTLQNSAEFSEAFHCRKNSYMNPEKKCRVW
Chain of porcine pancreatic trypsin (P00761 9-231): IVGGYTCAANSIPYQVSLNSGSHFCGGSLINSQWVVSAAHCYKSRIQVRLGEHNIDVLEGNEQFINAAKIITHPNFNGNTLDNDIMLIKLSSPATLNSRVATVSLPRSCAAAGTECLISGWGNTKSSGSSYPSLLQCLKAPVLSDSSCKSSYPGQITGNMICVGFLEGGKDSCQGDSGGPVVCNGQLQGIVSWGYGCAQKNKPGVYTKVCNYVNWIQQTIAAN
T1 sequence (P00791 60-385): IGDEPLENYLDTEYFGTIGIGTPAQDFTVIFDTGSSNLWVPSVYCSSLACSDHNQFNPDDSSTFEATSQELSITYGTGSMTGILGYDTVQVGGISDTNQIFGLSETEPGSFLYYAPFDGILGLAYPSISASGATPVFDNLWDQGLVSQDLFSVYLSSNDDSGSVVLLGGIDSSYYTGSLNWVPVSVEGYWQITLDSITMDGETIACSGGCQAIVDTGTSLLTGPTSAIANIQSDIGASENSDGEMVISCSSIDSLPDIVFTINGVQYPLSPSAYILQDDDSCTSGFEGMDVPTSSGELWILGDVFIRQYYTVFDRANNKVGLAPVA
Description for recombinant Neprilysin: Ratio enzyme (units):peptide (moles) ˜1:33. […] Ratio enzyme (units):peptide (moles) ˜1:2.5.
15 μL aliquots (˜15 ng initial peptide) of the peptide-enzyme mixture were periodically withdrawn (t=0, 30 mins, 1 hr, 2 hr, 4 hr, 8 hr, 24 hr) and quenched immediately by addition to an equal volume (15 μL) of 5% TFA (v/v) in 1:1 water/acetonitrile to arrest proteolytic activity. 20 μL aliquots (˜10 ng initial peptide) were analyzed by LC/MS and/or analytical RP-HPLC as follows: LC/MS method: Agilent Polaris C8-A column (4.6×100 mm, 3 micron) eluted with a linear binary gradient of 10-90% MeCN (0.1% TFA v/v) in water (0.1% TFA v/v) over 30 mins at 1.5 mL min-1 at ambient temperature with detection by both UV absorption at 210 nm and ionization using a Waters 3100 mass detector (ESI+ mode). Peptide fragments deriving from enzymatic hydrolysis were identified by molecular weight, allowing location of the site of cleavage. Analytical RP-HPLC method: Agilent Polaris C8-A column (4.6×100 mm, 3 micron) eluted with a linear binary gradient of 10-90% MeCN (0.1% TFA v/v) in water (0.1% TFA v/v) over either 10 or 15 mins at 1.5 mL min^−1 at 40° C. with detection by UV absorption at 210 nm. Manual integration (AUC) allowed estimation of remaining intact peptide over the time course of the experiment.
25 μL aliquots (˜6 μg initial peptide) were analyzed by LC/MS and/or analytical RP-HPLC as follows: LC/MS method: Agilent Polaris C8-A column (4.6×100 mm, 3 micron) eluted with a linear binary gradient of 10-90% MeCN (0.1% TFA v/v) in water (0.1% TFA v/v) over 30 mins at 1.5 mL min^−1 at ambient temperature with detection by both UV absorption at 210 nm and ionization using a Waters 3100 mass detector (ESI^+ mode). Peptide fragments deriving from enzymatic hydrolysis were identified by molecular weight, allowing location of the site of cleavage. Analytical RP-HPLC method: Agilent Polaris C8-A column (4.6×100 mm, 3 micron) eluted with a linear binary gradient of 10-90% MeCN (0.1% TFA v/v) in water (0.1% TFA v/v) over either 10 or 15 mins at 1.5 mL min^−1 at 40° C. with detection by UV absorption at 210 nm. Manual integration (AUC) allowed estimation of remaining intact peptide over the time course of the experiment.

Regarding `CC[C@H](C)[C@H](NC(=O)[C@H](Cc1ccccc1)NC(=O)[C@H](CCC(=O)O)NC(=O)[C@H](CCCCNC(=O)COCCOCCNC(=O)COCCOCCNC(=O)CC[C@H](NC(=O)CCCCCCCCCCCCCCCCC(=O)O)C(=O)O)NC(=O)[C@H](C)NC(=O)[C@H](C)NC(=O)[C@H](CCC(=O)O)NC(=O)CNC(=O)[C@H](CCC(=O)O)NC(=O)[C@H](CC(C)C)NC(=O)[C@](C)(Cc1ccccc1)NC(=O)[C@H](CO)NC(=O)[C@](C)(CO)NC(=O)[C@@H](NC(=O)[C@H](CC(=O)O)NC(=O)[C@H](CO)NC(=O)[C@@H](NC(=O)[C@](C)(Cc1ccccc1)NC(=O)[C@H](CO)NC(=O)CNC(=O)[C@H](CCC(=O)O)NC(=O)C(C)(C)NC(=O)[C@@H](N)Cc1c[nH]cn1)[C@@H](C)O)C(C)C)C(=O)N[C@@H](C)C(=O)N[C@@](C)(Cc1ccccc1)C(=O)N[C@H](C(=O)N[C@H](C(=O)N[C@@](C)(CCCCN)C(=O)NCC(=O)NCC(N)=O)C(C)C)C(C)C` [compound 48], the “Percentage remaining intact peptide (AUC by RP-HPLC) upon incubation with trypsin” value in data set [1] was determined as 100.0%. Also, the “Percentage remaining intact peptide (AUC by RP-HPLC) upon incubation with pepsin” value in data set [2] is on record as 100%. For the same compound, the “Percentage remaining peptide (AUC at specified time-point by RP-HPLC) upon incubation with neprilysin, t = 0” value (“Percentage remaining peptide” for short) at recombinant Neprilysin came out at 100%. Further, in data set [3], the remaining at 0.5 h came to 97.8%, the remaining at 1 h was 94.6%, the remaining at 2 h was found to be 90.9% and the remaining at 4 h turned out to be 88.8%. In data set [3], the remaining at 8 h stood at 89.4% and the remaining at 24 h amounted to 86.4%. The “Percentage remaining intact peptide (AUC by RP-HPLC) upon incubation with α-chymotrypsin” value in data set [4] stood at 100%.

In the case of `CC[C@H](C)[C@H](NC(=O)[C@](C)(Cc1ccccc1)NC(=O)[C@H](CCC(=O)O)NC(=O)[C@](C)(CCCCN)NC(=O)[C@H](C)NC(=O)[C@H](C)NC(=O)[C@H](CCC(=O)O)NC(=O)CNC(=O)[C@H](CCC(=O)O)NC(=O)[C@H](CC(C)C)NC(=O)[C@](C)(Cc1ccccc1)NC(=O)[C@H](CO)NC(=O)[C@](C)(CO)NC(=O)[C@@H](NC(=O)[C@H](CC(=O)O)NC(=O)[C@H](CO)NC(=O)[C@@H](NC(=O)[C@](C)(Cc1ccccc1)NC(=O)[C@H](CO)NC(=O)CNC(=O)[C@H](CCC(=O)O)NC(=O)C(C)(C)NC(=O)[C@@H](N)Cc1c[nH]cn1)[C@@H](C)O)C(C)C)C(=O)N[C@@H](C)C(=O)N[C@@](C)(Cc1ccccc1)C(=O)N[C@H](C(=O)N[C@H](C(=O)N[C@@](C)(CCCCN)C(=O)NCC(=O)NCC(N)=O)C(C)C)C(C)C` [compound 17], the “Percentage remaining intact peptide (AUC by RP-HPLC) upon incubation with trypsin” value in data set [1] came to 100%. Besides, the “Percentage remaining intact peptide (AUC by RP-HPLC) upon incubation with pepsin” value in data set [2] is 100%. The “Percentage remaining peptide” value on recombinant Neprilysin came to 100%. Further, in data set [3], the remaining at 0.5 h worked out at 91.6%, the remaining at 1 h came to 87.2%, the remaining at 2 h was 86.3% and the remaining at 4 h was 86.6%. In addition, in data set [3], the remaining at 8 h was determined as 87.7% and the remaining at 24 h was found to be 82.1%. Further, in data set [4], the “Percentage remaining intact peptide (AUC by RP-HPLC) upon incubation with α-chymotrypsin” value is 100%.

In the case of `CCCCCCCCCCCC(=O)N[C@@H](CCC(=O)NCCOCCOCC(=O)NCCOCCOCC(=O)NCCCC[C@H](NC(=O)[C@H](C)NC(=O)[C@@H](NC(=O)[C@H](Cc1ccc(OC)cc1)NC(=O)[C@H](CCC(=O)O)NC(=O)[C@](C)(CCCCN)NC(=O)[C@H](C)NC(=O)[C@H](C)NC(=O)[C@H](CCC(=O)O)NC(=O)CNC(=O)[C@H](CCC(=O)O)NC(=O)[C@H](CC(C)C)NC(=O)[C@H](CCCCNC(=O)COCCOCCNC(=O)COCCOCCNC(=O)CC[C@H](NC(=O)CCCCCCCCCCC)C(=O)O)NC(=O)[C@H](CO)NC(=O)[C@](C)(CO)NC(=O)[C@@H](NC(=O)[C@H](CC(=O)O)NC(=O)[C@H](CO)NC(=O)[C@@H](NC(=O)[C@](C)(Cc1ccccc1)NC(=O)[C@H](CO)NC(=O)CNC(=O)[C@H](CCC(=O)O)NC(=O)C(C)(C)NC(=O)[C@@H](N)Cc1c[nH]cn1)[C@@H](C)O)C(C)C)[C@@H](C)CC)C(=O)N[C@H](C(=O)N[C@H](C(=O)N[C@@H](CCC(=O)O)C(=O)NCC(=O)NCC(N)=O)C(C)C)C(C)C)C(=O)O` [compound 406] (H-H[Aib]EGS[αMeF]TSDV[αMeS]SK([AEEA-AEEA-γGlu-Lauroyl])LEGEAA[αMeK]EY(Me)IAK([AEEA-AEEA-γGlu-Lauroyl])VVEGG-NH2; N-terminus assumed), in data set [5], the “Percentage remaining intact peptide (AUC by RP-HPLC) upon incubation with fasted-state simulated intestinal fluid (FASSIF/P)” value was 100%. The remaining at 5 min, […] in data set [6] (t = 5 m) was 93.9%. For the same compound, in data set [6] (t = 10 m), the remaining at 10 min, […] is 85.7%. Further, in data set [6] (t = 15 m), the remaining at 0.25 h, […] is 75.9%. Further, the remaining at 0.5 h, […] in data set [6] (t = 30 m) is 56.1%. Further, in data set [6] (t = 1 h), the remaining at 1 h, […] is 33.2%. The remaining at 2 h, […] in data set [6] (t = 2 h) is 7.7%.

For `CCCCCCCCCCCCCCCC(=O)NCCCC[C@H](NC(=O)CNC(=O)CNC(=O)[C@](C)(CCCCN)NC(=O)[C@@H](NC(=O)[C@@H](NC(=O)[C@](C)(Cc1ccccc1)NC(=O)[C@H](C)NC(=O)[C@@H](NC(=O)[C@](C)(Cc1ccccc1)NC(=O)[C@H](CCC(=O)O)NC(=O)[C@](C)(CCCCN)NC(=O)[C@H](C)NC(=O)[C@H](C)NC(=O)[C@H](CCC(N)=O)NC(=O)CNC(=O)[C@H](CCC(=O)O)NC(=O)[C@H](CC(C)C)NC(=O)[C@](C)(Cc1ccccc1)NC(=O)[C@H](CO)NC(=O)[C@H](CO)NC(=O)[C@@H](NC(=O)[C@H](CC(=O)O)NC(=O)[C@H](CO)NC(=O)[C@@H](NC(=O)[C@](C)(Cc1ccccc1)NC(=O)[C@H](CO)NC(=O)CNC(=O)[C@H](CCC(=O)O)NC(=O)C(C)(C)NC(=O)[C@@H](N)Cc1c[nH]cn1)[C@@H](C)O)C(C)C)[C@@H](C)CC)C(C)C)C(C)C)C(N)=O` [compound 489] (H-H[Aib]EGS[αMeF]TSDVSS[αMeF]LEGQAA[αMeK]E[αMeF]IA[αMeF]VV[αMeK]GGK(Palmitoyl)-NH2), in data set [1], the “Percentage remaining intact peptide (AUC by RP-HPLC) upon incubation with trypsin” value stood at 100%. Further, the “Percentage remaining intact peptide (AUC by RP-HPLC) upon incubation with pepsin” value in data set [2] is on record as 100%. Moreover, the “Percentage remaining peptide” value at recombinant Neprilysin was determined as 100%.

On to `CC[C@H](C)[C@H](NC(=O)[C@H](Cc1ccccc1)NC(=O)[C@H](CCC(=O)O)NC(=O)[C@](C)(CCCCN)NC(=O)[C@H](C)NC(=O)[C@H](C)NC(=O)[C@H](CCC(=O)O)NC(=O)CNC(=O)[C@H](CCC(=O)O)NC(=O)[C@H](CC(C)C)NC(=O)[C@](C)(Cc1ccccc1)NC(=O)[C@H](CO)NC(=O)[C@](C)(CO)NC(=O)[C@@H](NC(=O)[C@H](CC(=O)O)NC(=O)[C@H](CO)NC(=O)[C@@H](NC(=O)[C@](C)(Cc1ccccc1)NC(=O)[C@H](CO)NC(=O)CNC(=O)[C@H](CCC(=O)O)NC(=O)C(C)(C)NC(=O)[C@@H](N)Cc1c[nH]cn1)[C@@H](C)O)C(C)C)C(=O)N[C@@H](CCCCNC(=O)COCCOCCNC(=O)COCCOCCNC(=O)CC[C@H](NC(=O)CCCCCCCCCCCCCCCCC(=O)O)C(=O)O)C(=O)N[C@@H](Cc1c[nH]c2ccccc12)C(=O)N[C@H](C(=O)N[C@H](C(=O)N[C@@H](CCC(=O)O)C(=O)NCC(=O)NCC(N)=O)C(C)C)C(C)C` [compound 68] (H-H[Aib]EGS[αMeF]TSDV[αMeS]S[αMeF]LEGEAA[αMeK]EFIK([AEEA-AEEA-γGlu-C18 diacid])WVVEGG-NH2; N-terminus assumed), for which, in data set [1], the “Percentage remaining intact peptide (AUC by RP-HPLC) upon incubation with trypsin” value is 100.0%. Moreover, the “Percentage remaining intact peptide (AUC by RP-HPLC) upon incubation with pepsin” value in data set [2] was 100%. At recombinant Neprilysin, the “Percentage remaining peptide” value is recorded as 100%.

The values above are taken from patent publication US20210221866A1, “PROTEASE-RESISTANT LIPIDATED GLP-1 ANALOGS” (MEDIMMUNE LIMITED, priority 2015, published 2021).
